Data taken from BigSolDB 2.1.

Clc1ccccc1C(c1ccccc1)(c1ccccc1)n1ccnc1
solubility (mole fraction)
Conditions | 293.2 K | 298.2 K | 303.2 K | 308.2 K | 313.2 K
in ethanol | 0.0154 | 0.0167 | 0.0216 | 0.025 | 0.0312
in water | 2.42e-08 | 2.92e-08 | 3.38e-08 | 3.77e-08 | 4.15e-08
